In patent US20240294495A1, “COMPOUNDS THAT MEDIATE PROTEIN DEGRADATION AND METHODS OF USE THEREOF” (Monte Rosa Therapeutics, Inc., priority 2021, published 2024) one finds DC50 and IC50 data, which are given here for 18 molecules.

One assay deals with T1, GSPT1 (Homo sapiens, UniProt P15170+Q96SW2).
T1 construct: CAL-51 cells were purchased from DSMZ (cat. Number ACC302); endogenous in cells; host or cells: CAL-51 (DSMZ ACC302)
The assay is described as follows: Immunofluorescence assay for GSPT1 degradation in CAL-51 cells. It is filed as cell-based. The following applies: 6 h treatment, read-out: IF Class (GSPT1 degradation, DC50). How it is done: The representative compounds were tested in an immunofluorescence assay for their activity to degrade GSPT1. CAL-51 cells were purchased from DSMZ (cat. Number ACC302), sub-cultured in 90% Dulbecco's MEM (4.5 g/L glucose, Gibco 11965)+10% heat inactivated FBS (BioConcept, 2-01F136I) and incubated at 37° C., 5% CO2. For the assay imaging microtiter plate Cell Carrier 96 Ultra (Perkin Elmer 6055302) were pre-coated with Fibronectin (Sigma F085, 30 μl at 0.2 μg/mL) in PBS (100 μL, Gibco 14190) for 45 min at room temperature, rinsed with PBS and CAL-51 cells (30K cells/well) were plated and let to adhere overnight. Cells were treated with compounds typically using a serial dilution ranging from 30 μM to 0.1 nM for 6 h. Compounds were stored at 10 mM DMSO stocks. Vehicle (DMSO), positive (CC-885, 10 μM) and rescue controls (positive control plus 0.2 μM bortezomib) were also included at this stage. Cells were subsequently rinsed with PBS and fixed in 10% Formalin solution (50 μl, Sigma HT5011)) for 20 min at room temperature. Following three consecutive PBS washes (100 μL), cells were permeabilized in 0.1% Triton X-100 in PBS (Sigma 93443, 50 μl) for 15 min at room temperature. Following three further PBS washes, 50 μl blocking buffer (1% BSA, Sigma A4503, in PBS) was added for 45 min for signal-to noise reduction. Primary antibody (human GSPT1, Sigma HPA052488) was diluted in blocking buffer (dil.1/300, 35 μL/well) and incubated with the cells overnight at 4° C. After three PBS washes, Alexa-fluor 488 coupled secondary antibodies (Invitrogen, A32731, dil.1/1000), Alexa-fluor 647-Phalloidin (Invitrogen, A22287, dil.1/200) and DAPI (Thermo, #62248, dil.1/1000) were diluted in blocking buffer and incubated with the samples for 2 h at room temperature. After three final PBS washes, samples were conserved in 100 μL PBS in the dark, until measurement. Image acquisition was performed on the Operetta High-Content Imager (Perkin-Elmer). Fluorescence intensity of […] (GSPT1), Alexa-Fluor 647 (Actin) and DAPI (Nucleus) were measured. For the determination of GSPT1 DC50 values, a custom algorithm implemented in the PerkinElmer image analysis software Harmony-Acapella® was developed. After user-defined setting of adjustment parameters, the analysis was run identically without human intervention for all image fields. DAPI staining of the nuclei was used to determine the location of cells using standard nuclei detection modules. Segmentation artifacts were removed by threshold-based filters for area, roundness and intensity. The outline of the cells was determined analogously from the sum of the normalized, smoothed DAPI and Actin channel, starting from each nucleus. The Alexa-Fluor 488 (GSPT1) signal intensity in each cell was finally measured, in order to obtain a Mean intensity per cell. GSPT1 degradation (DC50) was calculated after normalization to controls and data import in CDD vault Database, using non-linear regression.
(§1) In Table 2, each compound is assigned a class (HTRF class) indicating the ability for Cereblon binding by means of their HTRF IC50 values according to Example 3: A, B or C. According to the code, A represents an IC50 value of <100 nM, B represents an IC50 value>100 nM and <1000 nM, C represents an IC50 value>1000 nM. IF Class assigns each compound a code indicating the ability for GSPT1 degradation: A, B or C. According to the code, A represents a DC50 value of <30 nM, B represents a DC50 value>30 nM and <300 nM and C represents a DC50 value of >300 nM.

In the next assay the target is CRBN-DDB1 (Homo sapiens, UniProt Q96SW2). The assay can be described thus: Compound binding to CRBN by HTRF assay. The following applies: CRBN-DDB1 2.5 nM, Cy5-Thalidomide 100 nM probe, 30 min incubation; read-out: HTRF Class (Cereblon binding, HTRF IC50). How it is done:
Compound activity was monitored in a Homogenous Time-Resolved Fluorescence (HTRF) assay using 1-[5-({2-[2-(2-{[2-(2,6-dioxopiperidin-3-yl)-1,3-dioxo-2,3-dihydro-1H-isoindol-4-yl]oxy}acetamido)ethoxy]ethyl}carbamoyl)pentyl]-3,3-dimethyl-2-[(1E,3E)-5-[(2E)-1,3,3-trimethyl-5-sulfo-2,3-dihydro-1H-indol-2-ylidene]penta-1,3-dien-1-yl]-3H-indol-1-ium-5-sulfonate as a fluorescent probe. Biochemical assays were conducted in Greiner white 384 well HiBase plates (Cat. No 784075-25) in 10 μL total volume. A one pot detection solution of CRBN-DDB1 (2.5 nM), Anti-His Terbium Cryptate Gold (1×, PerkinElmer Cat. #: 61HI2TLB), and Cy5-Thalidomide (100 nM, Tenova Cat.: T52461) was prepared in 20 mM HEPES, 20 mM NaCl, 0.2 mM TCEP, 0.2 mM EDTA, and 0.005% Tween20 was dispensed to each assay plate. Compounds were stored in dry, ambient temperatures at 10 mM. A 10-point, 1:3 dilution series was prepared from 10 mM stock concentrations in Echo-compatible LDV plates. 10 nL of each compound dilution series was dispensed into assays wells using an Echo 650 (Labcyte inc. USA). 10 nL of 10 mM Lenalidomide was transferred into the active-control wells for the assay and 10 nL of DMSO was transferred into the neutral-control wells. The assay was then allowed to incubate for 30 min at ambient temperature after transferring compound. Plate measurements were taken on a Pherastar FSX (BMG Labtech, Germany) using the HTRF Red filter (Ex. 337 nm, em1: 620 nm, em2: 665 nm) (Flashes: 50, Integration time: 60-400 us, Z-height: 10 mm, Ratio-multiplier: 10,000). The HTRF signal was then subsequently normalized to the neutral and active controls. Analysis and IC50 values were derived using KNIME analytics (KNIME Zurich) transformation and fitting within Collaborative Drug Discovery (Collaborative Drug Discovery USA). Ki was derived from the geometric mean of the IC50 values using the Cheng-Prustoff transformation.
as §1

Each structure is given as a SMILES string. A value given as a limit tells only on which side of the number the result lay.

T1 sequence (P15170 whole entry): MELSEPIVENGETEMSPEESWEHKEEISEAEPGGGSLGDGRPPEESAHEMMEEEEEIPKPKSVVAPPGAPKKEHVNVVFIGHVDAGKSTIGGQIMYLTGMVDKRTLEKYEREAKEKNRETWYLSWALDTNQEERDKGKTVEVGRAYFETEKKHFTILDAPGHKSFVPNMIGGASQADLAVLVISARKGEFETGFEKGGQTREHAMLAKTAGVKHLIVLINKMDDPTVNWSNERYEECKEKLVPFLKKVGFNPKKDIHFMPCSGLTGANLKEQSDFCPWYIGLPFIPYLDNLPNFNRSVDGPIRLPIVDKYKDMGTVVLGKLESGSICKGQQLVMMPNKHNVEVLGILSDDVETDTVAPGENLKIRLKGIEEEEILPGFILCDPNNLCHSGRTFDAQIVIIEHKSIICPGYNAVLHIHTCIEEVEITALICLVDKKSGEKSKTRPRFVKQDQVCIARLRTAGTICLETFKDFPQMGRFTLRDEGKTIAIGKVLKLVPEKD
T1 sequence (Q96SW2 whole entry): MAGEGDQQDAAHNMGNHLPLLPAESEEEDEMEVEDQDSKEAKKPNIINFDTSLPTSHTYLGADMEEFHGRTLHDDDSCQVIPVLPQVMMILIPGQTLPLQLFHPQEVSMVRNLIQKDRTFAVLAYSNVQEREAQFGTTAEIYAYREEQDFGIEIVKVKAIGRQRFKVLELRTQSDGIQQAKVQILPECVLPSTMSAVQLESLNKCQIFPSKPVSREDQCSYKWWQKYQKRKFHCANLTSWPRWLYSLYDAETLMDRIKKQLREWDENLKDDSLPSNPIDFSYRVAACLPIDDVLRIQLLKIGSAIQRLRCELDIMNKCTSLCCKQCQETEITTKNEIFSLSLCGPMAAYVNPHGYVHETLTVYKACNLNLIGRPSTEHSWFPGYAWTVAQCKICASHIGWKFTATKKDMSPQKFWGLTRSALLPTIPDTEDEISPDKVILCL
T1 sequence (Q16531 2-1140 partner limits assumed): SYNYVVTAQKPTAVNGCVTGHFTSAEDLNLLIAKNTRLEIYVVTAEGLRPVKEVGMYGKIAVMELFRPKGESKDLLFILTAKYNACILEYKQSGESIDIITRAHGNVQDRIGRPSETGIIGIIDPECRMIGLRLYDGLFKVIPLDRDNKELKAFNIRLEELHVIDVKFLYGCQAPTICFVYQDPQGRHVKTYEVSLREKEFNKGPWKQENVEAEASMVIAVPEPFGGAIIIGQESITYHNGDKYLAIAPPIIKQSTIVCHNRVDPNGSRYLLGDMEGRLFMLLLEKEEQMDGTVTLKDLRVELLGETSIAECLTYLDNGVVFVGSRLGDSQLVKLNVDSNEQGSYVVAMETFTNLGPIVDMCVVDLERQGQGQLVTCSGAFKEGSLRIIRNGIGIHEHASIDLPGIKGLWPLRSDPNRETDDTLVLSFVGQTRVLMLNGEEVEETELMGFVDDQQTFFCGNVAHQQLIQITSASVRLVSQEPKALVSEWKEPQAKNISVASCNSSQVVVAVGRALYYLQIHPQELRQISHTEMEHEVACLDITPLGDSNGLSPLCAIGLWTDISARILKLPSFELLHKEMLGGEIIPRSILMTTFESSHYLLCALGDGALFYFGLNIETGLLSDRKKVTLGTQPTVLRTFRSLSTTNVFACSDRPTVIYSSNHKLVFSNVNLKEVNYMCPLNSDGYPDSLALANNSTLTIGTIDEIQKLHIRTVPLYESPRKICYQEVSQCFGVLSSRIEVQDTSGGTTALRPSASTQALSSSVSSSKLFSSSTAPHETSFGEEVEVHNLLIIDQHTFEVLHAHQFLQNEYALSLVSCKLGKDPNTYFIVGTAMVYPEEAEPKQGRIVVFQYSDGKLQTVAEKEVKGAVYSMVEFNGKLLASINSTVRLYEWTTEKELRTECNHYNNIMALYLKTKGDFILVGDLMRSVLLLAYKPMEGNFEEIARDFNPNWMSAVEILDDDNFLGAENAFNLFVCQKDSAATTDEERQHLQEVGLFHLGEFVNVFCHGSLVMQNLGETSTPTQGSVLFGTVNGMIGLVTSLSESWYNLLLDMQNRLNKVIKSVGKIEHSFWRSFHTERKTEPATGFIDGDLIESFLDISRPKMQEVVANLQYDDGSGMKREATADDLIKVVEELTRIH
Chain of CRBN-DDB1 (Q96SW2 whole entry): as the sequence (Q96SW2 whole entry) above
Chain of CRBN-DDB1 (Q16531 whole entry partner): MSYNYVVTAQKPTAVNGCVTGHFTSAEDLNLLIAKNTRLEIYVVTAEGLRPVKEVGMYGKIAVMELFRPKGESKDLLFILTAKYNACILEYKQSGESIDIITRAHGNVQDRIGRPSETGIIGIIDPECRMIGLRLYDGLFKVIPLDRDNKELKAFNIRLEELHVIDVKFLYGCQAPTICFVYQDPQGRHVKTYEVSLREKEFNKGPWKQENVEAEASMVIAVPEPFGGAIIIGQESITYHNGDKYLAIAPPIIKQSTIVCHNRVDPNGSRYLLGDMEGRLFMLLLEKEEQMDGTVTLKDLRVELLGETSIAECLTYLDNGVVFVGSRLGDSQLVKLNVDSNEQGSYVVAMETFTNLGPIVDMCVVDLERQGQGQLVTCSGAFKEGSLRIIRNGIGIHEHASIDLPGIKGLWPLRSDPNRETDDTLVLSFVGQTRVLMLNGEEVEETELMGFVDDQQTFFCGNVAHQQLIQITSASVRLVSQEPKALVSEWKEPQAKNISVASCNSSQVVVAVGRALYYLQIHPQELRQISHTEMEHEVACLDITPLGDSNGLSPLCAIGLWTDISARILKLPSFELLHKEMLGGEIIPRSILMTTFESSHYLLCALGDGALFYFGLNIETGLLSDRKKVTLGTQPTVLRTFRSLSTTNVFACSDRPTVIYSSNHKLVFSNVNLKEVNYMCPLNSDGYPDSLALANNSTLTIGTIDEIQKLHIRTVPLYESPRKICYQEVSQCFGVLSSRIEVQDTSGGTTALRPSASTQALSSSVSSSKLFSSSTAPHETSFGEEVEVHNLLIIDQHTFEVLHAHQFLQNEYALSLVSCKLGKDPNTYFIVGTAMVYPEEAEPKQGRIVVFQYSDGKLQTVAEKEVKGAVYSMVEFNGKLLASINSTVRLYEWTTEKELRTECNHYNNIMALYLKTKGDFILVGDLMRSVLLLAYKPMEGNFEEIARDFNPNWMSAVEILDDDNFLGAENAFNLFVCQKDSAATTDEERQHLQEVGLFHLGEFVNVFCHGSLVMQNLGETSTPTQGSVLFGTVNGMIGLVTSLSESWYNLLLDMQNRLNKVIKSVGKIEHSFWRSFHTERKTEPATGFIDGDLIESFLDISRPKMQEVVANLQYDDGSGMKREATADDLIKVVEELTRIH

Take `N#Cc1cc(Cl)cc(CC(=O)NC2CN(c3cc(F)c(C4CCC(=O)NC4=O)c(F)c3)C2)c1` (stereo not shown) [Compound 44, 2-(3-chloro-5-cyanophenyl)-N-(1-(4-(2,6-dioxopiperidin-3-yl)-3,5-difluorophenyl)azetidin-3-yl)acetamide]: the DC50 at GSPT1 was in the range of 30 to 300 nM. Regarding `O=C1CCC(c2c(F)cc(N3CC(NC(=O)C45CC(c6ccccc6)(C4)C5)C3)cc2F)C(=O)N1` (stereo not shown) [Compound 21, N-(1-(4-(2,6-dioxopiperidin-3-yl)-3,5-difluorophenyl)azetidin-3-yl)-3-phenylbicyclo [1.1.1]pentane-1-carboxamide], on GSPT1, the DC50 is above 300 nM. In addition, at CRBN-DDB1, the IC50 was 100 to 1000 nM. Regarding `N#Cc1ccc(CC(=O)NC2CN(c3cc(F)c(C4CCC(=O)NC4=O)c(F)c3)C2)cc1Cl` (stereo not shown) [Compound 48, 2-(3-chloro-4-cyanophenyl)-N-(1-(4-(2,6-dioxopiperidin-3-yl)-3,5-difluorophenyl)azetidin-3-yl)acetamide], on GSPT1, the DC50 is above 300 nM. Moreover, on CRBN-DDB1, the IC50 was below 100 nM.

As for `N#Cc1ccc(CC(=O)NC2CN(c3cc(F)c(C4CCC(=O)NC4=O)c(F)c3)C2)c(Cl)c1` (stereo not shown) [Compound 1, 2-(2-chloro-4-cyanophenyl)-N-(1-(4-(2,6-dioxopiperidin-3-yl)-3,5-difluorophenyl)azetidin-3-yl)acetamide], the DC50 on GSPT1 is above 300 nM. Moreover, the IC50 at CRBN-DDB1 fell in the range of 100 to 1000 nM. For `O=C1CCC(c2c(F)cc(N3CC(NC(=O)Cc4cc(Cl)c(F)cc4F)C3)cc2F)C(=O)N1` (stereo not shown) [Compound 4, 2-(5-chloro-2,4-difluorophenyl)-N-(1-(4-(2,6-dioxopiperidin-3-yl)-3,5-difluorophenyl)azetidin-3-yl)acetamide] the same measures were below 30 nM and 100 to 1000 nM.

Take `O=C1CCC(c2c(F)cc(N3CC(CC(=O)Nc4cccc(OC(F)(F)F)c4)C3)cc2F)C(=O)N1` (stereo not shown) [Compound 39, 2-(1-(4-(2,6-dioxopiperidin-3-yl)-3,5-difluorophenyl)azetidin-3-yl)-N-(3-(trifluoromethoxy)phenyl)acetamide]: the half-maximal degradation concentration (DC50) on GSPT1 fell in the range of 30 to 300 nM. Regarding `O=C1CCC(c2c(F)cc(N3CC(CC(=O)Nc4ccc(F)c(OC(F)F)c4)C3)cc2F)C(=O)N1` (stereo not shown) [Compound 6, N-(3-(difluoromethoxy)-4-fluorophenyl)-2-(1-(4-(2,6-dioxopiperidin-3-yl)-3,5-difluorophenyl)azetidin-3-yl)acetamide], the DC50 on GSPT1 lay within 30 to 300 nM. Further, on CRBN-DDB1, the 50% inhibitory concentration (IC50) was in the range of 100 to 1000 nM. For the molecule `O=C1CCC(c2c(F)cc(N3CC(NC(=O)Cc4ccc(Cl)cc4)C3)cc2F)C(=O)N1` (stereo not shown) [Compound 36, 2-(4-chlorophenyl)-N-(1-(4-(2,6-dioxopiperidin-3-yl)-3,5-difluorophenyl)azetidin-3-yl)acetamide], at GSPT1, the 50% degradation concentration (DC50) is above 300 nM. Further, on CRBN-DDB1, the concentration for half-maximal inhibition (IC50) is 100 to 1000 nM. For `O=C1CCC(c2c(F)cc(N3CC(NC(=O)Cc4c(F)cc(Cl)cc4F)C3)cc2F)C(=O)N1` (stereo not shown) [Compound 16, 2-(4-chloro-2,6-difluorophenyl)-N-(1-(4-(2,6-dioxopiperidin-3-yl)-3,5-difluorophenyl)azetidin-3-yl) acetamide] the same measures were 30 to 300 nM and 100 to 1000 nM. The like results for `O=C1CCC(c2c(F)cc(N3CC(NC(=O)Cc4ccc(F)c(F)c4)C3)cc2F)C(=O)N1` (stereo not shown) [Compound 17, 2-(3,4-difluorophenyl)-N-(1-(4-(2,6-dioxopiperidin-3-yl)-3,5-difluorophenyl)azetidin-3-yl)acetamide] were, in that order, above 300 nM and 100 to 1000 nM. On to `O=C1CCC(c2c(F)cc(N3CC(NC(=O)Cc4ccc(Cl)cc4F)C3)cc2F)C(=O)N1` (stereo not shown) [Compound 31, 2-(4-chloro-2-fluorophenyl)-N-(1-(4-(2,6-dioxopiperidin-3-yl)-3,5-difluorophenyl)azetidin-3-yl)acetamide], for which, on GSPT1, the DC50 is 30 to 300 nM. For the same molecule, the half-maximal inhibitory concentration (IC50) on CRBN-DDB1 was 100 to 1000 nM. For `O=C1CCC(c2c(F)cc(N3CC(NC(=O)Cc4ccc(F)c(Cl)c4)C3)cc2F)C(=O)N1` (stereo not shown) [Compound 13, 2-(3-chloro-4-fluorophenyl)-N-(1-(4-(2,6-dioxopiperidin-3-yl)-3,5-difluorophenyl)azetidin-3-yl)acetamide] the same measures were above 300 nM and 100 to 1000 nM. In the case of `O=C1CCC(c2c(F)cc(N3CC(NC(=O)C(F)(F)c4ccc(Cl)cc4)C3)cc2F)C(=O)N1` (stereo not shown) [Compound 37, 2-(4-chlorophenyl)-N-(1-(4-(2,6-dioxopiperidin-3-yl)-3,5-difluorophenyl)azetidin-3-yl)-2,2-difluoroacetamide], on GSPT1, the DC50 is above 300 nM. As to `O=C1CCC(c2c(F)cc(N3CC(NC(=O)c4cc(Cl)ccc4F)C3)cc2F)C(=O)N1` (stereo not shown) [Compound 46, 5-chloro-N-(1-(4-(2,6-dioxopiperidin-3-yl)-3,5-difluorophenyl)azetidin-3-yl)-2-fluorobenzamide], the concentration for half-maximal inhibition (IC50) at CRBN-DDB1 was 100 to 1000 nM.

`O=C1CCC(c2ccc(N3CC(NC(=O)C(F)(F)c4ccc(Cl)cc4)C3)cc2Cl)C(=O)N1` (stereo not shown) [Compound 35, N-(1-(3-chloro-4-(2,6-dioxopiperidin-3-yl)phenyl)azetidin-3-yl)-2-(4-chlorophenyl)-2,2-difluoroacetamide]: the DC50 at GSPT1 is above 300 nM. Turning to `Cc1c(Cl)cc(NC(=O)CC2CN(c3cc(F)c(C4CCC(=O)NC4=O)c(F)c3)C2)cc1CN1CCOCC1` (stereo not shown) [Compound 38, N-(3-chloro-4-methyl-5-(morpholinomethyl)phenyl)-2-(1-(4-(2,6-dioxopiperidin-3-yl)-3,5-difluorophenyl)azetidin-3-yl)acetamide], the 50% degradation concentration (DC50) on GSPT1 is below 30 nM. Regarding `O=C1CCC(c2ccc(N3CC(NC(=O)Cc4ccc(Cl)cc4)C3)cc2Cl)C(=O)N1` (stereo not shown) [Compound 34, N-(1-(3-chloro-4-(2,6-dioxopiperidin-3-yl)phenyl)azetidin-3-yl)-2-(4-chlorophenyl)acetamide], at GSPT1, the 50% degradation concentration (DC50) is above 300 nM.

For `O=C1CCC(c2c(F)cc(N3CC(CC(=O)Nc4cc(F)cc(OC(F)F)c4)C3)cc2F)C(=O)N1` (stereo not shown) [Compound 45, N-(3-(difluoromethoxy)-5-fluorophenyl)-2-(1-(4-(2,6-dioxopiperidin-3-yl)-3,5-difluorophenyl)azetidin-3-yl)acetamide], the half-maximal degradation concentration (DC50) on GSPT1 was above 300 nM.
